In patent EP4755892A1, “KINESIN KIF18A INHIBITOR AND USE THEREOF” (Shanghai Apeiron Therapeutics Company Limited, priority 2023, dated 2025):
Read-outs that look alike come from different tables or passages of the source.

Columns and labels:
HT29 cells = test: CyQuant Cell Proliferation Activity Test, HT29; type: cell-based; conditions: HT29 cells 2000 per well, initial concentration 3000 nM, 3-fold dilution, 3 days, 0.2% DMSO, read-out: HT29_IC50 _nM
Protocol: Assay 3: CyQuant Cell Proliferation Activity Test
Materials and Cells: HT29 cells were purchased from Nanjing Cobioer Biosciences Co., Ltd.; RPMI-1640 medium, fetal bovine serum, Trypsin-EDTA (0.25%), 96-well plates, and CyQuant reagents were purchased from ThermoFisher (USA); DMSO was purchased from SIGMA (USA).
Cell Culture: HT29 cells were cultured with RPMI-1640 containing 10% fetal bovine serum under the condition of 37°C and 5% CO2. Only cells in the logarithmic growth phase could be used for the test.
Cell Proliferation Activity Test: CyQuant reagent was used to detect the proliferation inhibitory activity of compounds on HT29 cells. The cell density was adjusted, and 100 µL per well was inoculated into a 96-well plate (HT29 at 2000 cells per well), then incubated overnight at 37°C and 5% CO2. Add compounds of various target concentrations (initial concentration of 3000 nM, 3-fold dilution, 9 concentration gradients), and make the DMSO content 0.2%. The cell plate was incubated at 37°C in 5% CO2 for 3 days. CyQuant reagent was added and incubated for 1 h. The plates were read by Envision, and IC50 was calculated using XLFIT.

OVCAR3 cells = test: Cell Proliferation Activity Test (CyQUANT Direct), OVCAR3; type: cell-based; conditions: compound 0-10 µM, 3 days, 0.2% DMSO, CyQUANT fluorescence, read-out: OVCAR-3 _IC50_nM
Protocol: Assay 2: Cell Proliferation Activity Test
Materials and Cells: OVCAR3 cells were purchased from Nanjing Cobioer Biosciences Co., Ltd. RPMI-1640 medium, fetal bovine serum, and the CyQUANT Direct Cell Proliferation Assay kit were purchased from Thermo Fisher Scientific, USA; 96-well cell culture plates were sourced from Coming, USA.
Cell Culture: OVCAR3 cells were cultured with RPMI-1640 medium containing 10% fetal bovine serum and incubated in a 5% CO2 incubator at 37°C. Only cells in the logarithmic growth phase could be used for the test.
Cell Proliferation Activity Test:
OVCAR3 cells were inoculated into a 96-well cell culture plate at 90 µL per well and incubated overnight in a 5% CO2 incubator at 37°C. The compound powder was dissolved in DMSO to prepare a stock solution of 10 mM. Then gradient dilution was performed for the compounds in the microplate to achieve a final concentration of 0-10 µM. 10 µL of cell culture medium containing compounds was added to each well to make the final DMSO content 0.2%. The cell plates were incubated in a 5% CO2 incubator at 37°C for 3 days. 100 µL of CyQUANT detection reagent was added to each well, reacted at 37°C for 60 min, and fluorescence detection was performed using the PerkinElmer Envision.

[1] = biological target: T1, Human KIF18A (amino acid sequence 1-417) (Homo sapiens, UniProt Q8NI77); test: Enzymatic Activity Test (ADP-Glo, microtubule-stimulated KIF18A ATPase); type: biochemical; conditions: 60 µg/mL microtubules, 25 µM ATP, 2.5 nM KIF18A protein, 120 min at ambient temperature, chemiluminescence; read-out: KIF 18A IC50
T1 construct: purchased Viva Biotech (Shanghai) Ltd
T1 sequence (Q8NI77 1-417): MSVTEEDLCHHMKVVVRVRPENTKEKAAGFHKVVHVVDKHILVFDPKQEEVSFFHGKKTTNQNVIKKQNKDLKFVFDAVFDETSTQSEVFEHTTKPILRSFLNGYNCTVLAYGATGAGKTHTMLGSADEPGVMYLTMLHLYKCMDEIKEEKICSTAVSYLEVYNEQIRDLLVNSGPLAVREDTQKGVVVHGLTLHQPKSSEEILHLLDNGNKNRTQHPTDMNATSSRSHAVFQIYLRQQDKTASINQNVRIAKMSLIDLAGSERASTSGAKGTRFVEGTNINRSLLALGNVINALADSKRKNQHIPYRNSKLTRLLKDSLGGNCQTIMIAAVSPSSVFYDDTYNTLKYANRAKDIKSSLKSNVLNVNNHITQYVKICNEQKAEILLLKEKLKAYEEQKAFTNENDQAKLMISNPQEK
Protocol: Assay 1: Enzymatic Activity Test
Materials: Human KIF18A (amino acid sequence 1-417) was purchased from Viva Biotech (Shanghai) Ltd.; the ADP-Glo™ protein kinase kit was acquired from Promega, USA; tubulin was sourced from Cytoskeleton, USA; and the 384-well assay plate and Envision multifunctional microplate reader were obtained from PerkinElmer, USA.
Enzymatic Activity Test: The compound powder was dissolved in DMSO to prepare a stock solution of 10 mM. Then gradient dilution was performed for the compounds in the microplate to achieve a final concentration of 0-10 µM. Then, 2.5 µL each of tubulin, compound, ATP, and KIF18A protein were added to the microplate in sequence for reaction at ambient temperature for 120 min. The final concentrations in the enzyme reaction were 60 µg/mL for microtubules, 25 µM for ATP, and 2.5 nM for KIF18A protein. After the enzyme reaction, 10 µL of ADP-GLO reaction reagent was added to each well and incubated at room temperature for 30 min. After that, 20 µL of detection reagent was added to each well and incubated at room temperature for 30 min in the dark. Finally, chemiluminescence detection was performed using the PerkinElmer Envision.

| Structure (SMILES) | IC50 (HT29 cells; Homo sapiens, HT-29, 72 h) [nM] | IC50 (OVCAR3 cells; Homo sapiens, OVCAR-3, 72 h) [nM] | IC50 [1] [nM] | IC50 (HT29 cells) [nM] | IC50 (OVCAR3 cells) [nM] |
| --- | --- | --- | --- | --- | --- |
| Cc1cc2nc(n1)N1CCCC(C=CC3CCN(CC3)c3cc(NS(=O)(=O)CCO)ccc3C(=O)N2)C1 (stereo not drawn) [Example 4, 2-Hydroxy-N-(1^1-methyl-7-oxo-8-aza-1(2,4)-pyrimidin-2(1,3),5(4,1)-dipiperidin-6 (1,2)-benzeneheterocyclooct-3-en-6^5-yl)ethane-1-sulfonamide] | > 3000 | 1660 | 736 |  |  |
| Cc1cc2nc(n1)N1CCCC(CCC3CCN(CC3)c3cc(NS(=O)(=O)CCO)ccc3C(=O)N2)C1 (stereo not drawn) [Example 5, 2-Hydroxy-N-(1^1-methyl-7-oxo-8-aza-1(2,4)-pyrimidin-2(1,3),5(4,1)-dipiperidin-6 (1,2)-benzeneheterocyclooct-6^5-yl)ethane-1-sulfonamide] | 132 | 122 | 38 |  |  |
| Cc1cc2nc(n1)N1CCCC(C=CCCC3CCN(CC3)c3cc(NS(=O)(=O)CCO)ccc3C(=O)N2)C1 (stereo not drawn) [Example 6, 2-Hydroxy-N-(2^1-methyl-4-oxo-3-aza-2(2,4)-pyrimidin-1(1,3),6(1,4)-dipiperidin-5 (1,2)-benzenecyclodec-9-en-5^4-yl)ethane-1-sulfonamide] | 64 | 52 | 89 |  |  |
| Cc1cc2nc(n1)N1CCCC(CCCCC3CCN(CC3)c3cc(NS(=O)(=O)CCO)ccc3C(=O)N2)C1 (stereo not drawn) [Example 7, 2-Hydroxy-N-(2^6-methyl-4-oxo-3-aza-2(2,4)-pyrimidin-1(1,3),6(1,4)-dipiperidin-5 (1,2)-benzenecyclodecane-5^4-yl)ethane-1-sulfonamide] | 255 | 242 | 197 |  |  |
| Cc1cc2nc(n1)N1CCCC(C=CCC3CCCN(C3)c3cc(NS(=O)(=O)CCO)ccc3C(=O)N2)C1 (stereo not drawn) [Example 10, 2-Hydroxy-N-(2^6-methyl-4-oxo-3-aza-2(2,4)-pyrimidin-1,6(1,3)-dipiperidin-5(1,2) -benzeneheterocyclononane-8-en-5^4-yl)ethane-1-sulfonamide] | 172 | 136 | 200 |  |  |
| O=C1Nc2cccc(c2)S(=O)(=O)NCC=CCCC2CCN(CC2)c2cc(NS(=O)(=O)CCO)ccc21 [Example 12, N-(6,6-dioxo-3-oxo-6-thia-4,7-diaza-1(1,4)-piperidin-2(1,2),5(1,3)-diphenylheterocyclododec-9-ene-2^5-yl)-2-hydroxy-1-ethanesulfonamide] | 251 | 124 | 28 |  |  |
| O=C1Nc2cccc(c2)S(=O)(=O)NCCCCCC2CCN(CC2)c2cc(NS(=O)(=O)CCO)ccc21 [Example 13, N-(6,6-dioxo-3-oxo-6-thia-4,7-diaza-1(1,4)-piperidin-2(1,2),5(1,3)-diphenylheterocyclododecane-2^5-yl)-2-hydroxy-1-ethanesulfonamide] | 136 | 77 | 23 |  |  |
| O=C1Nc2cccc(c2)S(=O)(=O)NCCCCC2CCN(CC2)c2cc(NS(=O)(=O)CCO)ccc21 [Example 14, N-(6,6-dioxo-3-oxo-6-thia-1(1,4)-piperidin-2(1,2),5(1,3)-diphenylheterocycloundecane-2^5-yl)-2-hydroxy-1-ethanesulfonamide] | 152 | 85 | 21 |  |  |
| O=C1Nc2cccc(c2)S(=O)(=O)NCC=CC2CCN(CC2)c2cc(NS(=O)(=O)CCO)ccc21 [Example 15, (E)-N-(6,6-dioxo-3-oxo-6-thia-4,7-diaza-1(1,4)-piperidin-2(1,2),5(1,3)-diphenylheterocyclodec-9-en-2^5-yl)-2-hydroxy-1-ethanesulfonamide] | > 3000 | > 3000 | 275 |  |  |
| O=C1Nc2cccc(c2)S(=O)(=O)NCCCC2CCN(CC2)c2cc(NS(=O)(=O)CCO)ccc21 [Example 16, N-(6,6-dioxo-3-oxo-6-thia-4,7-diaza-1(1,4)-piperidin-2(1,2),5(1,3)-diphenylheterocyclodecane-2^5-yl)-2-hydroxy-1-ethanesulfonamide] | > 3000 | > 3000 | 588 |  |  |
| O=C1Nc2cccc(c2)S(=O)(=O)N2CCN(CCC3CCN(CC3)c3cc(NS(=O)(=O)CCO)ccc31)CC2 [Example 17, N-(6,6-dioxo-9-oxo-6-thia-8-aza-5(1,4)-piperazin-2(1,4)-piperidin-1(1,2),7(1,3)-diphenylheterocyclononane-1^3-yl)-2-hydroxyethane-1-sulfonamide] | > 3000 | > 3000 | 605 |  |  |
| Cc1cc2nc(n1)N1CCC(F)(F)C(C=CCC3CCN(CC3)c3cc(NS(=O)(=O)CCO)ccc3C(=O)N2)C1 (stereo not drawn) [Example 18, N-(1^4,1^4-difluoro-2^6-methyl-4-oxo-3-aza-2(2,4)-pyrimidin-1(1,3),6(1,4)-dipiperidin-5(1,2)-benzeneheterocyclonon-8-en-5^4-yl)-2-hydroxyethane-1-sulfonamide] |  |  | 94 | 34 | 31 |
| Cc1cc2nc(n1)N1CCC(F)(F)C(C=CCC3CCN(CC3)c3cc(NS(=O)(=O)CCO)ccc3C(=O)N2)C1 (stereo not drawn) [Example 18A, N-((1^3S,E)-1^4,1^4-difluoro-2^1-methyl-4-oxo-3-aza-2(2,4)-pyrimidin-1(1,3),6(1,4)-dipiperidin-5(1,2)-benzeneheterocyclononane-8-en-5^4-yl)-2-hydroxyethane-1-sulfonamide] |  |  | > 3000 | > 3000 | > 3000 |
| Cc1cc2nc(n1)N1CCC(F)(F)C(C=CCC3CCN(CC3)c3cc(NS(=O)(=O)CCO)ccc3C(=O)N2)C1 (stereo not drawn) [Example 18B, N-(1^3R,E)-1^4,1^4-difluoro-2^6-methyl-4-oxo-3-aza-2(2,4)-pyrimidin-1(1,3),6(1,4)-dip iperidin-5(1,2)-benzeneheterocyclononane-8-en-5^4-yl)-2-hydroxyethane-1-sulfonamide] |  |  | 46 | 16 | 12 |
| Cc1cc2nc(n1)N1CCC(F)(F)C(C=CCC3CCN(CC3)c3cc(NS(=O)(=O)CCO)ccc3C(=O)N2)C1 (stereo not drawn) [Example 18C, N-((1^3S,Z)-1^4,1^4-difluoro-2^6-methyl-4-oxo-3-aza-2(2,4)-pyrimidin-1(1,3),6(1,4)-dipiperidin-5(1,2)-benzeneheterocyclononane-8-en-5^4-yl)-2-hydroxyethane-1-sulfonamide] |  |  | 41 | 31 | 29 |
